Assay results published in patent US4060527A, “Pyrido[2,3-c]-acridine-1-hydroxy-2-carboxylic acid derivatives” (Fuji Chemical Industries, Ltd., priority 1975, dated 1977).
In brackets after ≈: the same amount, converted by molar mass. Read-outs that look alike come from different tables or passages of the source.

Legend:
Staphylococcus aureus [1] = assay: Antibacterial activity (MIC) against Staphylococcus aureus as Gram-positive bacterium; format: cell-based; details: Table 3, class symbols; for MIC: Staphylococcus aureus, read-out: Antibacterial Activity (MIC) Staph. aureus
Description: (§1) Some of the compounds of this invention were tested as to their antibacterial activity (MIC, mcg/ml) against Staph. aureus as Gram-positive bacterium and E. coli as Gram-negative bacterium. In the table, the antibacterial activity of 0.09 to 1.25 mcg/ml. is indicated as A1, and the antibacterial activity of more than 1.25 mcg/ml. and not more than 2.5 mcg/ml. is indicated as A2.

Escherichia coli [2] = assay: Antibacterial activity (MIC) against Escherichia coli as Gram-negative bacterium; format: cell-based; details: Table 3, class symbols; for MIC: Escherichia coli, read-out: Antibacterial Activity (MIC) E. coli
Description: as §1

Staphylococcus aureus [3] = assay: Antibacterial activity (MIC) against Staphylococcus aureus as Gram-positive bacterium; format: cell-based; details: for MBC: Table 1, bacteriocidal, read-out: Staphylococcus aureus bacteriocidal action; for MIC: Table 1, bacteriostatic, read-out: Staphylococcus aureus bacteriostatic action (MIC)
Escherichia coli [4] = assay: Antibacterial activity (MIC) against Escherichia coli as Gram-negative bacterium; format: cell-based; details: for MBC: Table 1, bacteriocidal, read-out: Escherichia coli bacteriocidal action; for MIC: Table 1, bacteriostatic, read-out: Escherichia coli bacteriostatic action (MIC)
in vivo = details: mouse
[5] = Acute toxicity LD50 on mouse; details: in vivo, sc

SMILES: CN(C)c1c2ccccc2nc2c1ccc1ncc(C(=O)O)c(O)c12 [Compound F-869, Pyrido[2,3-c]-acridine-1-hydroxy-7-dimethylamino-2-carboxylic acid]
- MIC (Staphylococcus aureus [1]): 0.09 to 1.25 µg/mL (≈ 0.27 to 3.75 µM)
- MIC (Escherichia coli [2]): 0.09 to 1.25 µg/mL (≈ 0.27 to 3.75 µM)

SMILES: O=C(O)c1cnc2ccc3c(-c4ccccc4Br)c4ccccc4nc3c2c1O [Compound F-777, Pyrido[2,3-c]-acridine-1-hydroxy-7-o-bromophenyl-2-carboxylic acid]
- MIC (Staphylococcus aureus [1]): 0.09 to 1.25 µg/mL (≈ 0.202 to 2.81 µM)
- MIC (Escherichia coli [2]): 0.09 to 1.25 µg/mL (≈ 0.202 to 2.81 µM)

SMILES: NCc1cc2cc3ccccc3nc2c2c(O)c(C(=O)O)cnc12 [Compound F-901, Pyrido[2,3-c]-acridine-1-hydroxy-5-aminomethyl-2-carboxylic acid]
- MIC (Staphylococcus aureus [1]): 1.25 to 2.5 µg/mL (≈ 3.91 to 7.83 µM)
- MIC (Escherichia coli [2]): 1.25 to 2.5 µg/mL (≈ 3.91 to 7.83 µM)

SMILES: O=C(O)c1cnc2ccc3c(-c4ccccc4)c4ccccc4nc3c2c1O [Compound F-633]
- MIC (Staphylococcus aureus [1]): 0.09 to 1.25 µg/mL (≈ 0.246 to 3.41 µM)
- MIC (Escherichia coli [2]): 0.09 to 1.25 µg/mL (≈ 0.246 to 3.41 µM)
- MBC (Staphylococcus aureus [3]): 1.25 µg/mL (≈ 3.41 µM)
- MIC (Staphylococcus aureus [3]): 1.25 µg/mL (≈ 3.41 µM)
- MBC (Escherichia coli [4]): 1.25 µg/mL (≈ 3.41 µM)
- MIC (Escherichia coli [4]): 1.25 µg/mL (≈ 3.41 µM)
- LD50 (in vivo; iv): 245 mg/kg
- LD50 (in vivo; po): > 5000 mg/kg
- LD50 [5]: > 3000 mg/kg

SMILES: O=C(O)c1cnc2c(O)cc3cc4ccccc4nc3c2c1O [Compound F-929, Pyrido[2,3-c]-1,5-dihydroxy-2-carboxylic acid]
- MIC (Staphylococcus aureus [1]): 0.09 to 1.25 µg/mL (≈ 0.294 to 4.08 µM)
- MIC (Escherichia coli [2]): 0.09 to 1.25 µg/mL (≈ 0.294 to 4.08 µM)

SMILES: O=C(O)c1cnc2ccc3cc4cccc(O)c4nc3c2c1O [Compound F-932, Pyrido[2,3-c]-1,11-dihydroxy-2-carboxylic acid]
- MIC (Staphylococcus aureus [1]): 0.09 to 1.25 µg/mL (≈ 0.294 to 4.08 µM)
- MIC (Escherichia coli [2]): 0.09 to 1.25 µg/mL (≈ 0.294 to 4.08 µM)

SMILES: O=C(O)c1cnc2c(Br)cc3cc4ccccc4nc3c2c1O [Compound F-840, Pyrido[2,3-c]-acridine-1-hydroxy-5-bromo-2-carboxylic acid]
- MIC (Escherichia coli [2]): 0.09 to 1.25 µg/mL (≈ 0.244 to 3.39 µM)

SMILES: C=CCc1c2ccccc2nc2c1ccc1ncc(C(=O)O)c(O)c12 [Compound F-694, Pyrido[2,3-c]-acridine-1-hydroxy-7-allyl-2-carboxylic acid]
- MIC (Staphylococcus aureus [1]): 1.25 to 2.5 µg/mL (≈ 3.78 to 7.57 µM)
- MIC (Escherichia coli [2]): 0.09 to 1.25 µg/mL (≈ 0.272 to 3.78 µM)

SMILES: O=C(O)c1cnc2c(I)cc3cc4ccccc4nc3c2c1O [Compound F-844, Pyrido[2,3-c]-acridine-1-hydroxy-5-iodo-2-carboxylic acid]
- MIC (Staphylococcus aureus [1]): 0.09 to 1.25 µg/mL (≈ 0.216 to 3 µM)
- MIC (Escherichia coli [2]): 0.09 to 1.25 µg/mL (≈ 0.216 to 3 µM)

SMILES: CCCCc1c2ccccc2nc2c1ccc1ncc(C(=O)O)c(O)c12 [Compound F-634]
- MIC (Staphylococcus aureus [1]): 0.09 to 1.25 µg/mL (≈ 0.26 to 3.61 µM)
- MIC (Escherichia coli [2]): 0.09 to 1.25 µg/mL (≈ 0.26 to 3.61 µM)
- MBC (Staphylococcus aureus [3]): 0.25 µg/mL (≈ 0.722 µM)
- MIC (Staphylococcus aureus [3]): 0.25 µg/mL (≈ 0.722 µM)
- MBC (Escherichia coli [4]): 0.62 µg/mL (≈ 1.79 µM)
- MIC (Escherichia coli [4]): 0.62 µg/mL (≈ 1.79 µM)
- LD50 (in vivo; iv): 215 mg/kg
- LD50 (in vivo; po): > 5000 mg/kg
- LD50 [5]: > 3000 mg/kg

SMILES: CS(=O)(=O)c1ccc2nc3c(ccc4ncc(C(=O)O)c(O)c43)cc2c1 [Compound F-890, Pyrido[2,3-c]-acridine-1-hydroxy-9-methylsulfonyl-2-carboxylic acid]
- MIC (Staphylococcus aureus [1]): 0.09 to 1.25 µg/mL (≈ 0.244 to 3.39 µM)
- MIC (Escherichia coli [2]): 0.09 to 1.25 µg/mL (≈ 0.244 to 3.39 µM)

SMILES: O=C(O)c1cnc2ccc3c(N(CO)CO)c4ccccc4nc3c2c1O [Compound F-914, Pyrido[2,3-c]-acridine-1-hydroxy-7-di-(hydroxymethyl)amino-2-carboxylic acid]
- MIC (Staphylococcus aureus [1]): 0.09 to 1.25 µg/mL (≈ 0.246 to 3.42 µM)
- MIC (Escherichia coli [2]): 0.09 to 1.25 µg/mL (≈ 0.246 to 3.42 µM)

SMILES: O=C(O)c1cnc2ccc3cc4ccc([N+](=O)[O-])cc4nc3c2c1O [Compound F-892, Pyrido[2,3-c]-acridine-1-hydroxy-10-nitro-2-carboxylic acid]
- MIC (Staphylococcus aureus [1]): 0.09 to 1.25 µg/mL (≈ 0.268 to 3.73 µM)
- MIC (Escherichia coli [2]): 0.09 to 1.25 µg/mL (≈ 0.268 to 3.73 µM)

SMILES: CCNc1ccc2nc3c(ccc4ncc(C(=O)O)c(O)c43)cc2c1 [Compound F-858, Pyrido[2,3-c]-acridine-1-hydroxy-9-ethylamino-2-carboxylic acid]
- MIC (Staphylococcus aureus [1]): 0.09 to 1.25 µg/mL (≈ 0.27 to 3.75 µM)
- MIC (Escherichia coli [2]): 0.09 to 1.25 µg/mL (≈ 0.27 to 3.75 µM)

SMILES: CC(=O)OCCNc1cc2cc3ccccc3nc2c2c(O)c(C(=O)O)cnc12 [Compound F-925, Pyrido[2,3-c] -acridine-1-hydroxy-5-acetoxyethylamino-2-carboxylic acid]
- Antibacterial Activity (MIC) Staph. aureus (Staphylococcus aureus [1]): A1 (antibacterial activity of 0.09 to 1.25 mcg/ml.)
- Antibacterial Activity (MIC) E. coli (Escherichia coli [2]): A1 (antibacterial activity of 0.09 to 1.25 mcg/ml.)

SMILES: O=C(O)c1cnc2c(N(CO)CO)cc3cc4ccccc4nc3c2c1O [Compound F-913, Pyrido[2,3-c]-acridine-1-hydroxy-5-di-(hydroxymethyl)amino-2-carboxylic acid]
- MIC (Staphylococcus aureus [1]): 0.09 to 1.25 µg/mL (≈ 0.246 to 3.42 µM)
- MIC (Escherichia coli [2]): 0.09 to 1.25 µg/mL (≈ 0.246 to 3.42 µM)

SMILES: C=Cc1c2ccccc2nc2c1ccc1ncc(C(=O)O)c(O)c12 [Compound F-690, Pyrido[2,3-c]-acridine-1-hydroxy-7-vinyl-2-carboxylic acid]
- MIC (Staphylococcus aureus [1]): 1.25 to 2.5 µg/mL (≈ 3.95 to 7.9 µM)
- MIC (Escherichia coli [2]): 1.25 to 2.5 µg/mL (≈ 3.95 to 7.9 µM)

SMILES: CCNc1cc2cc3ccccc3nc2c2c(O)c(C(=O)O)cnc12 [Compound F-856, Pyrido[2,3-c]-acridine-1-hydroxy-5-ethylamino-2-carboxylic acid]
- MIC (Staphylococcus aureus [1]): 0.09 to 1.25 µg/mL (≈ 0.27 to 3.75 µM)
- MIC (Escherichia coli [2]): 0.09 to 1.25 µg/mL (≈ 0.27 to 3.75 µM)

SMILES: CS(=O)(=O)c1c2ccccc2nc2c1ccc1ncc(C(=O)O)c(O)c12 [Compound F-889, Pyrido[2,3-c]-acridine-1-hydroxy-7-methylsulfonyl-2-carboxylic acid]
- MIC (Staphylococcus aureus [1]): 0.09 to 1.25 µg/mL (≈ 0.244 to 3.39 µM)
- MIC (Escherichia coli [2]): 0.09 to 1.25 µg/mL (≈ 0.244 to 3.39 µM)
